Laboratory results taken from patent US12077503B2, “Substituted cyclic amides and their use as herbicides” (FMC CORPORATION, priority 2015, dated 2024).

Columns and labels:
Assay type in all cases: in vivo
[1] = tested on: giant foxtail (Setaria faberi); assay: Test G Post-Emergence Protocol; details: Setaria faberi, post-emergence, 312 h, read-out: Foxtail, Giant damage rating; for pest or weed control at 15.625 g/ha: 15.625 g ai/ha, evaluated after 13 days (100=total damage to plant; 0=no damage to plant); for pest or weed control at 62.5 g/ha: 62.5 g ai/ha; for pest or weed control at 62.5 g/ha / pest or weed control at 250 g/ha: evaluated after 13 days, 100=total damage to plant, 0=no damage to plant; for pest or weed control at 250 g/ha: 250 g ai/ha
Outline: (§1)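 Damage was rated 13 days after treatment from 0 (none) to 100 (plant killed). Compound was applied as a spray at 15.625, 62.5 or 250 g/ha in 50:50 acetone/water containing 0.5% Tween 20, onto 8-day-old potted plants kept in a glasshouse (24/16 °C, 14 h light, 65% humidity).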

[2] = tested on: barnyardgrass (Echinochloa crus-galli); assay: Test G Post-Emergence Protocol; details: Echinochloa crus-galli, post-emergence, 312 h, read-out: Barnyardgrass damage rating; for pest or weed control at 15.625 g/ha: 15.625 g ai/ha, evaluated after 13 days (100=total damage to plant; 0=no damage to plant); for pest or weed control at 62.5 g/ha: 62.5 g ai/ha; for pest or weed control at 62.5 g/ha / pest or weed control at 250 g/ha: evaluated after 13 days, 100=total damage to plant, 0=no damage to plant; for pest or weed control at 250 g/ha: 250 g ai/ha
Outline: as §1

[3] = tested on: redroot pigweed (Amaranthus retroflexus); assay: Test G Post-Emergence Protocol; details: Amaranthus retroflexus, post-emergence, 312 h, read-out: Pigweed, Redroot damage rating; for pest or weed control at 15.625 g/ha: 15.625 g ai/ha, evaluated after 13 days (100=total damage to plant; 0=no damage to plant); for pest or weed control at 62.5 g/ha: 62.5 g ai/ha; for pest or weed control at 62.5 g/ha / pest or weed control at 250 g/ha: evaluated after 13 days, 100=total damage to plant, 0=no damage to plant; for pest or weed control at 250 g/ha: 250 g ai/ha
Outline: as §1

[4] = tested on: velvetleaf (Abutilon theophrasti); assay: Test G Post-Emergence Protocol; details: Abutilon theophrasti, post-emergence, 312 h, read-out: Velvetleaf damage rating; for pest or weed control at 15.625 g/ha: 15.625 g ai/ha, evaluated after 13 days (100=total damage to plant; 0=no damage to plant); for pest or weed control at 62.5 g/ha: 62.5 g ai/ha; for pest or weed control at 62.5 g/ha / pest or weed control at 250 g/ha: evaluated after 13 days, 100=total damage to plant, 0=no damage to plant; for pest or weed control at 250 g/ha: 250 g ai/ha
Outline: as §1

[5] = tested on: ivy-leaved morning glory (Ipomoea hederacea); assay: Test G Post-Emergence Protocol; details: Ipomoea, post-emergence, 312 h, read-out: Morningglory, Ivy-leaved damage rating; for pest or weed control at 15.625 g/ha: 15.625 g ai/ha, evaluated after 13 days (100=total damage to plant; 0=no damage to plant); for pest or weed control at 62.5 g/ha: 62.5 g ai/ha; for pest or weed control at 62.5 g/ha / pest or weed control at 250 g/ha: evaluated after 13 days, 100=total damage to plant, 0=no damage to plant; for pest or weed control at 250 g/ha: 250 g ai/ha
Outline: as §1

corn (Zea mays) [6] = assay: Test G Post-Emergence Protocol; details: Zea mays, post-emergence, 312 h, read-out: Corn damage rating; for plant injury at 15.625 g/ha: 15.625 g ai/ha, evaluated after 13 days (100=total damage to plant; 0=no damage to plant); for plant injury at 62.5 g/ha: 62.5 g ai/ha; for plant injury at 62.5 g/ha / plant injury at 250 g/ha: evaluated after 13 days, 100=total damage to plant, 0=no damage to plant; for plant injury at 250 g/ha: 250 g ai/ha
Outline: as §1

[7] = tested on: giant foxtail (Setaria faberi); assay: Test G Pre-Emergence Protocol; details: Setaria faberi, pre-emergence, 312 h, evaluated after 13 days; for pest or weed control at 15.625 g/ha: 15.625 g ai/ha; for pest or weed control at 15.625 g/ha / pest or weed control at 250 g/ha: read-out: Foxtail, Giant damage rating (100=total damage to plant; 0=no damage to plant); for pest or weed control at 62.5 g/ha: 62.5 g ai/ha, 100=total damage to plant, 0=no damage to plant, read-out: Foxtail, Giant damage rating; for pest or weed control at 250 g/ha: 250 g ai/ha
Outline: (§2)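 Test compound in 0.5% Tween 20 acetone/water (50:50) was applied at three rates (15.625, 62.5, 250 g/ha) to soil sown one day earlier. After 13 days plants were scored for injury, where 0 means unaffected and 100 means completely damaged.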

[8] = tested on: barnyardgrass (Echinochloa crus-galli); assay: Test G Pre-Emergence Protocol; details: Echinochloa crus-galli, pre-emergence, 312 h, evaluated after 13 days; for pest or weed control at 15.625 g/ha: 15.625 g ai/ha; for pest or weed control at 15.625 g/ha / pest or weed control at 250 g/ha: read-out: Barnyardgrass damage rating (100=total damage to plant; 0=no damage to plant); for pest or weed control at 62.5 g/ha: 62.5 g ai/ha, 100=total damage to plant, 0=no damage to plant, read-out: Barnyardgrass damage rating; for pest or weed control at 250 g/ha: 250 g ai/ha
Outline: as §2

[9] = tested on: redroot pigweed (Amaranthus retroflexus); assay: Test G Pre-Emergence Protocol; details: Amaranthus retroflexus, pre-emergence, 312 h, evaluated after 13 days; for pest or weed control at 15.625 g/ha: 15.625 g ai/ha; for pest or weed control at 15.625 g/ha / pest or weed control at 250 g/ha: read-out: Pigweed, Redroot damage rating (100=total damage to plant; 0=no damage to plant); for pest or weed control at 62.5 g/ha: 62.5 g ai/ha, 100=total damage to plant, 0=no damage to plant, read-out: Pigweed, Redroot damage rating; for pest or weed control at 250 g/ha: 250 g ai/ha
Outline: as §2

[10] = tested on: velvetleaf (Abutilon theophrasti); assay: Test G Pre-Emergence Protocol; details: Abutilon theophrasti, pre-emergence, 312 h, evaluated after 13 days; for pest or weed control at 15.625 g/ha: 15.625 g ai/ha; for pest or weed control at 15.625 g/ha / pest or weed control at 250 g/ha: read-out: Velvetleaf damage rating (100=total damage to plant; 0=no damage to plant); for pest or weed control at 62.5 g/ha: 62.5 g ai/ha, 100=total damage to plant, 0=no damage to plant, read-out: Velvetleaf damage rating; for pest or weed control at 250 g/ha: 250 g ai/ha
Outline: as §2

[11] = tested on: ivy-leaved morning glory (Ipomoea hederacea); assay: Test G Pre-Emergence Protocol; details: Ipomoea, pre-emergence, 312 h, evaluated after 13 days; for pest or weed control at 15.625 g/ha: 15.625 g ai/ha; for pest or weed control at 15.625 g/ha / pest or weed control at 250 g/ha: read-out: Morningglory, Ivy-leaved damage rating (100=total damage to plant; 0=no damage to plant); for pest or weed control at 62.5 g/ha: 62.5 g ai/ha, 100=total damage to plant, 0=no damage to plant, read-out: Morningglory, Ivy-leaved damage rating; for pest or weed control at 250 g/ha: 250 g ai/ha
Outline: as §2

corn (Zea mays) [12] = assay: Test G Pre-Emergence Protocol; details: Zea mays, pre-emergence, 312 h, evaluated after 13 days; for plant injury at 15.625 g/ha: 15.625 g ai/ha; for plant injury at 15.625 g/ha / plant injury at 250 g/ha: read-out: Corn damage rating (100=total damage to plant; 0=no damage to plant); for plant injury at 62.5 g/ha: 62.5 g ai/ha, 100=total damage to plant, 0=no damage to plant, read-out: Corn damage rating; for plant injury at 250 g/ha: 250 g ai/ha
Outline: as §2

Compound | pest or weed control at 15.625 g/ha [1] | pest or weed control at 62.5 g/ha [1] | pest or weed control at 250 g/ha [1] | pest or weed control at 15.625 g/ha [2] | pest or weed control at 62.5 g/ha [2] | pest or weed control at 250 g/ha [2] | pest or weed control at 15.625 g/ha [3] | pest or weed control at 62.5 g/ha [3] | pest or weed control at 250 g/ha [3] | pest or weed control at 15.625 g/ha [4] | pest or weed control at 62.5 g/ha [4] | pest or weed control at 250 g/ha [4] | pest or weed control at 15.625 g/ha [5] | pest or weed control at 62.5 g/ha [5] | pest or weed control at 250 g/ha [5] | plant injury at 15.625 g/ha (corn (Zea mays) [6]) | plant injury at 62.5 g/ha (corn (Zea mays) [6]) | plant injury at 250 g/ha (corn (Zea mays) [6]) | pest or weed control at 15.625 g/ha [7] | pest or weed control at 62.5 g/ha [7] | other results
CN1C[C@H](c2cccc(C(F)F)c2)[C@@H](C(=O)Nc2ccccc2S(C)(=O)=O)C1=O (racemic) [Compound 1800] | 0% | 20% | 70% | 0% | 10% | 80% | 0% | 10% | 10% | 0% | 0% | 0% | 0% | 10% | 20% | 0% | 0% | 0% | 20% | 70% | pest or weed control at 250 g/ha [7]: 90%; pest or weed control at 15.625 g/ha [8]: 10%; pest or weed control at 62.5 g/ha [8]: 40%; pest or weed control at 250 g/ha [8]: 80%; pest or weed control at 15.625 g/ha [9]: 10%; pest or weed control at 62.5 g/ha [9]: 20%; pest or weed control at 250 g/ha [9]: 10%; pest or weed control at 15.625 g/ha [10]: 0%; pest or weed control at 62.5 g/ha [10]: 10%; pest or weed control at 250 g/ha [10]: 0%; pest or weed control at 15.625 g/ha [11]: 0%; pest or weed control at 62.5 g/ha [11]: 0%; pest or weed control at 250 g/ha [11]: 0%; plant injury at 15.625 g/ha (corn (Zea mays) [12]): 0%; plant injury at 62.5 g/ha (corn (Zea mays) [12]): 0%; plant injury at 250 g/ha (corn (Zea mays) [12]): 0%
CCOc1ccc([C@@H]2CN(C)C(=O)[C@H]2C(=O)Nc2cccc(F)c2C)cc1Cl (racemic) [Compound 1803] | 20% | 70% | 80% | 0% | 0% | 70% | 0% | 0% | 20% | 0% | 0% | 0% | 0% | 10% | 10% | 0% | 0% | 0% | 70% | 90% | pest or weed control at 250 g/ha [7]: 90%; pest or weed control at 15.625 g/ha [8]: 20%; pest or weed control at 62.5 g/ha [8]: 70%; pest or weed control at 250 g/ha [8]: 90%; pest or weed control at 15.625 g/ha [9]: 30%; pest or weed control at 62.5 g/ha [9]: 0%; pest or weed control at 250 g/ha [9]: 40%; pest or weed control at 15.625 g/ha [10]: 10%; pest or weed control at 62.5 g/ha [10]: 0%; pest or weed control at 250 g/ha [10]: 20%; pest or weed control at 15.625 g/ha [11]: 0%; pest or weed control at 62.5 g/ha [11]: 0%; pest or weed control at 250 g/ha [11]: 0%; plant injury at 15.625 g/ha (corn (Zea mays) [12]): 0%; plant injury at 62.5 g/ha (corn (Zea mays) [12]): 0%; plant injury at 250 g/ha (corn (Zea mays) [12]): 30%
CN1C[C@H](c2ccc(C(F)(F)F)cc2)[C@@H](C(=O)Nc2ccc[n+]([O-])c2F)C1=O (racemic) [Compound 1815] | 0% | 0% | 10% | 0% | 0% | 0% | 0% | 0% | 0% | 0% | 0% | 0% | 0% | 0% | 0% | 0% | 0% | 0% | 0% | 0% | pest or weed control at 250 g/ha [7]: 40%; pest or weed control at 15.625 g/ha [8]: 0%; pest or weed control at 62.5 g/ha [8]: 0%; pest or weed control at 250 g/ha [8]: 0%; pest or weed control at 15.625 g/ha [9]: 0%; pest or weed control at 62.5 g/ha [9]: 0%; pest or weed control at 250 g/ha [9]: 0%; pest or weed control at 15.625 g/ha [10]: 0%; pest or weed control at 62.5 g/ha [10]: 0%; pest or weed control at 250 g/ha [10]: 0%; pest or weed control at 15.625 g/ha [11]: 0%; pest or weed control at 62.5 g/ha [11]: 0%; pest or weed control at 250 g/ha [11]: 0%; plant injury at 15.625 g/ha (corn (Zea mays) [12]): 0%; plant injury at 62.5 g/ha (corn (Zea mays) [12]): 0%; plant injury at 250 g/ha (corn (Zea mays) [12]): 0%
